Consider one compound from patent US20240325420A1, “COMPOSITION INCLUDING PAEONIFLORIN FOR PREVENTION OR TREATMENT OF CACHEXIA AND MUSCLE LOSS” (CHUNG ANG UNIVERSITY INDUSTRY ACADEMIC COOPERATION …, priority 2021, published 2024).

In test [1] the test system is Balb/c mice with cisplatin-induced cachexia. As to the kind of experiment: Skeletal muscle function test in cisplatin-treated Balb/c mice. Type of test: in vivo. The settings on record: oral paeoniflorin. The protocol: The animal experiments were performed in accordance with internationally accepted principles for laboratory animal use and care, and the corresponding study protocol was reviewed and approved by the Institutional Animal Care and Use Committee (IACUC) at Chung-Ang University (approval #2021-00022). Four-week-old female C57BL/6 mice and Balb/c mice were purchased from Raonbio Inc. (Yongin, Korea) and were provided with standard laboratory diet and water ad libitum in the animal facility of Chung-Ang University. After a week of acclimation, the mice were intraperitoneally injected three times with 3 mg/kg/day cisplatin, suspended in 200 μL saline, every other day. […]
(§1) A skeletal muscle function test was conducted one day before euthanasia. Muscle strength of each mouse was measured by the grip strength of front paws, and endurance of each mouse was measured by treadmill running time until exhaustion. Motor coordination was measured by retention time on a rotating cylinder with a diameter of 3 cm (Castro and Kuang, 2017). The grip strength of each mouse was measured using a grip strength meter (Bio-GS3, Bioseb, Vitrolles, France). The treadmill running time of each mouse was measured on a treadmill (Exer-3/6, Columbus Instruments, […], USA). The ability of each mouse to stay on a rotating cylinder was measured using a rotarod apparatus (Panlab, Barcelona, Spain).

In the next test the test system is C2C12 myoblasts. As to the kind of experiment: Myotube differentiation of C2C12 myoblasts. The class given is cell-based. On the procedure: C2C12 myoblasts were purchased from ATCC (Manassas, Virginia, USA) and cultured using DMEM containing 10% fetal bovine serum. After the cells reached 70% confluence, myotube differentiation was induced while the medium was replaced with DMEM containing 2% horse serum every two days. A negative control group was treated with […] of TNF-α, which inhibits myotube differentiation. While the myoblasts were treated with paeoniflorin at a concentration of 50 to 200 μM along with TNF-α, the degree of myotube differentiation was observed and the length of differentiated myotubes was measured using the Image J program.

Test [2] relates to C57BL/6 mice with Lewis lung carcinoma-induced cachexia. As to the kind of experiment: Body weight and muscle mass in C57BL/6 mice with Lewis lung carcinoma-induced cachexia. Type of test: in vivo. The protocol:
As the experimental animals, 4-week-old female C57BL/6 mice and Balb/c mice weighing 18 g to 20 g were purchased from Raon Bio (Yongin, Korea), acclimatized in the laboratory animal facility for one week, and then used in the experiment. During the experiment period, the animals were provided with solid feed and water ad libitum, and the breeding room was maintained at a temperature of 20° C. to 24° C. and a relative humidity of 55% to 65% with a 12-hr light/12-hr dark cycle.
Mice were divided into a control group and a cachexia-induced group, and the cachexia-induced group was subdivided into a tumor cell-injected group, a tumor cell-injected and existing drug (MA, megestrol acetate)-administered group, and tumor cell-injected and paeoniflorin (Pae)-administered groups. Each group consisted of 10 animals.
Each mouse of the control group was injected subcutaneously with 100 μL of saline solution. For the cachexia-induced groups, Lewis lung carcinoma cells (C57BL/6 mice) or colon-26 carcinoma cells (Balb/c mice) were injected subcutaneously into the flank area of each mouse at a dose of 10^6 cells/100 μL/mouse. After 2 weeks, when a distinct tumor was formed, the tumor cell-injected group was orally administered distilled water, the tumor cell-injected and existing drug-administered group was orally administered megestrol acetate (MA), which is currently most commonly prescribed for cancer cachexia patients in clinical practice, at a dose of 160 mg/kg (=800 mg [daily human dose]/60 kg [average human body weight]×12 [dose equivalent factor based on human:mouse body surface area ratio], once daily for 9 days, and the tumor cell-injected and paeoniflorin-administered groups were orally administered paeoniflorin (prepared in Example 1) once daily for 9 days at doses of 5 (Pae 5 group), 10 (Pae 10 group) and 20 (Pae 20 group) mg/kg, respectively. After completion of 9 days of administration, the muscle strength of the mice was measured using a grip strength test device (Bioseb, USA), and the endurance of the mice was measured using a treadmill device (Columbus Instrument, USA).
After completion of the experiment, the mice were euthanized, blood was collected therefrom, the body weight excluding tumors, and the weights of the hind limb gastrocnemius muscle and quadriceps muscle were measured. GDF-15 in the serum was quantified by ELISA.

In test [3] the test system is myosin heavy chain (MyHC) and myoblast determination protein (MyoD). Briefly: Protein levels of MyHC and MyoD in gastrocnemius muscle by Western blotting. The conditions noted are these: C57BL/6 mice, cisplatin-treated, Pae 10 and Pae 20 vs vehicle. The class given is in vivo. The protocol: In addition, cisplatin-treated mice orally administered the same volume of distilled water were designated as the vehicle group. After completion of drug treatment, the mice of each group were euthanized with 10 mg/kg alfaxalone (Jurox, Rutherford, Australia). Blood was collected in test tubes containing EDTA, and centrifuged, and plasma was separated therefrom. Gastrocnemius and quadriceps skeletal muscles were dissected and weighed. The skeletal muscles were rapidly frozen in liquid nitrogen to be used for RT-qPCR, Western blotting, and ELISA.
Proteins were extracted from skeletal muscle using NucleoSpin kits (Macherey-Nagel, Duren, Germany) and quantified using the BCA Protein Assay Kit (Pierce, Rockford, IL, USA). Anti-β-actin antibody was used to quantify protein loading. For myosin protein (MyHC, myosin heavy chain), myogenic factor (MyoD), and NF-κB signaling system (p-IKK, IKK, p-IκB, and IκB), protein levels in the gastrocnemius muscle were measured by Western blotting. Band intensities were quantified using ImageJ software (NIH, Bethesda, MD, USA).
In order to measure the mRNA and protein levels of major factors involved in muscle loss, muscle contraction, and muscle differentiation, the mRNA and protein levels in the skeletal muscle tissues from C57BL/6 mice were measured by real-time PCR and Western blotting.
In general terms: A western blot detects proteins with antibodies after separation by electrophoresis.

For test [4], the system named is C57BL/6 mice with cisplatin-induced cachexia. Briefly: Skeletal muscle function test in cisplatin-treated C57BL/6 mice. The class given is in vivo. The conditions noted are these: oral paeoniflorin 10 or 20 mg/kg. The protocol: The animal experiments were performed in accordance with internationally accepted principles for laboratory animal use and care, and the corresponding study protocol was reviewed and approved by the Institutional Animal Care and Use Committee (IACUC) at Chung-Ang University (approval #2021-00022). Four-week-old female C57BL/6 mice and Balb/c mice were purchased from Raonbio Inc. (Yongin, Korea) and were provided with standard laboratory diet and water ad libitum in the animal facility of Chung-Ang University. After a week of acclimation, the mice were intraperitoneally injected three times with 3 mg/kg/day cisplatin, suspended in 200 μL saline, every other day. Control group mice (sham-treated mice) were injected with the same volume of saline under the same regimen. The cisplatin-treated groups were orally administered paeoniflroin (Pae) or megestrol acetate (MA), suspended in 200 μL distilled water, every day until euthanasia.
Specifically, the cisplatin-treated groups were orally administered paeoniflorin (prepared in Example 1) at a dose of 5 (Pae 5 group), 10 (Pae 10 group), or 20 (Pae 20 group) mg/kg once daily for 9 days. […]
as §1

The structures appear in SMILES notation.

Turning to `C[C@@]12C[C@@]3(O)O[C@@H](O1)[C@]1(COC(=O)c4ccccc4)[C@H]3C[C@@]12O[C@@H]1O[C@H](CO)[C@@H](O)[C@H](O)[C@H]1O` [paeoniflorin], the muscle strength result in test [1] (FIG. 4A) was “similarly restored”. In addition, the endurance entry in test [1] (FIG. 4B) is recorded as “similarly restored”. For the same compound, the myotube differentiation entry with C2C12 myoblasts (paeoniflorin 50 to 200 μM along with TNF-α, FIG. 19) is given as “promoted”. The myotube length entry in the test with C2C12 myoblasts (paeoniflorin-treated groups vs negative control group (TNF-α+Pae 0 μM), FIG. 20) was “significantly increased”. Moreover, the body weight result in test [2] (C57BL/6 mice, Lewis lung carcinoma-injected, paeoniflorin orally once daily for 9 days vs Lewis lung carcinoma-injected group, FIG. 14A) is reported as “significantly increased”. For the same compound, the “weight of gastrocnemius muscle” value in test [2] (C57BL/6 mice, Lewis lung carcinoma-injected, paeoniflorin orally once daily for 9 days vs Lewis lung carcinoma-injected group, FIG. 14B) is “significantly increased”. The “weight of quadriceps muscle” value in test [2] (C57BL/6 mice, Lewis lung carcinoma-injected, paeoniflorin orally once daily for 9 days vs Lewis lung carcinoma-injected group, FIG. 14C) was “significantly increased”. The “effect on body weight and muscle mass compared with megestrol acetate (MA)” value in test [2] (Lewis lung carcinoma C57BL/6 mice, paeoniflorin 10 to 20 mg/kg/day vs megestrol acetate 160 mg/kg/day) is “better effect”. Besides, the MyHC protein level entry in test [3] (FIGS. 6C, 7A) is given as “increased”. In addition, the MyoD protein level entry in test [3] (FIGS. 6D, 7B) was “increased”. Besides, the “grip strength (muscle strength)” value in test [4] (FIG. 3A) was “significantly restored”. In test [4] (FIG. 3B), the “treadmill running time (endurance)” value was “significantly restored”. Further, the “rotarod retention time (motor coordination)” value in test [4] (FIG. 3C) is listed as “significantly restored”.
